Assay results from patent US8349880B2, “Bicyclic compounds for the reduction of beta-amyloid production” (Bristol-Myers Squibb Company, priority 2009, dated 2013).
Where two headings read alike, the source gives them in different places.

System: Aβ1-42 production
Experiment: Cellular assay for inhibition of Aβ1-42 production (H4 APP751 SWE clone 8.20)
Type: cell-based
Conditions: 19 h, H4 APP751 SWE clone 8.20 cells, 19 h incubation
Method in brief: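 Aβ42 level read with antibodies 565, against the Aβ42 neoepitope, and N-terminal 26D6, incubated overnight at 4° C, after exposure of H4 APP751 SWE clone 8.20 cells to compound for 19 h at 37° C. Medium was DMEM plus 0.0125% BSA, 1.5×10^4 cells/well. IC50 values come from curve fitting.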

[1] = read-out: Activity Rating (Aβ42 cellular IC50, given as a number)
[2] = read-out: Activity Rating (based on Aβ42 cellular IC50 values)

Row | SMILES | IC50 [1] [nM] | IC50 [2] [nM]
1 | COc1cc(Nc2nc3n(n2)CCCCC3c2ccc(Cl)cc2Cl)ccc1-n1cnc(Cl)c1 (centres unmarked) [Example 19, N-(4-(4-chloro-1H-imidazol-1-yl)-3-methoxyphenyl)-9-(2,4-dichlorophenyl)-6,7,8,9-tetrahydro-5H-[1,2,4]triazolo azepin-2-amine 2,2,2-trifluoroacetate] | – | < 10
2 | COc1cc(Nc2nc3n(n2)CCCCC3c2ccc(F)c(F)c2)ccc1-n1cnc(Cl)c1 (centres unmarked) [Example 22, N-(4-(4-chloro-1H-imidazol-1-yl)-3-methoxyphenyl)-9-(3,4-difluorophenyl)-6,7,8,9-tetrahydro-5H-[1,2,4]triazolo[1,5-a]azepin-2-amine 2,2,2-trifluoroacetate] | – | < 10
3 | COc1cc(Nc2nc3n(n2)CCCCC3c2ccc(F)cc2)c(F)cc1-n1cnc(C)n1 (centres unmarked) [Example 28, N-(2-fluoro-5-methoxy-4-(3-methyl-1H-1,2,4-triazol-1-yl)phenyl)-9-(4-fluorophenyl)-6,7,8,9-tetrahydro-5H-[1,2,4]triazolo[1,5-a]azepin-2-amine 2,2,2-trifluoroacetate] | – | 10 to 100
4 | COc1cc(Nc2nc3n(n2)CCCCC3c2ccc(Cl)cc2)ccc1-n1cnc(Cl)c1 (centres unmarked) [Example 32, N-(4-(4-chloro-1H-imidazol-1-yl)-3-methoxyphenyl)-9-(4-chlorophenyl)-6,7,8,9-tetrahydro-5H-[1,2,4]triazolo[1,5-a]azepin-2-amine 2,2,2-trifluoroacetate] | – | < 10
5 | COc1cc(Nc2nc3n(n2)CCCCC3c2ccc(F)cc2)ccc1-n1cnc(Cl)n1 (centres unmarked) [Example 33, N-(4-(3-chloro-1H-1,2,4-triazol-1-yl)-3-methoxyphenyl)-9-(4-fluorophenyl)-6,7,8,9-tetrahydro-5H-[1,2,4]triazolo[1,5-a]azepin-2-amine 2,2,2-trifluoroacetate] | 9 | –
6 | COc1cc(Nc2nc3n(n2)CCCCC3c2cccc(F)c2)ccc1-n1cnc(Cl)c1 (centres unmarked) [Example 44, N-(4-(4-chloro-1H-imidazol-1-yl)-3-methoxyphenyl)-9-(3-fluorophenyl)-6,7,8,9-tetrahydro-5H-[1,2,4]triazolo[1,5-a]azepin-2-amine] | – | < 10
7 | Fc1ccc(C2CCCCn3nc(Nc4cc(F)c(-n5cnc(Cl)c5)c(F)c4)nc32)cc1 (centres unmarked) [Example 48, N-(4-(4-chloro-1H-imidazol-1-yl)-3,5-difluorophenyl)-9-(4-fluorophenyl)-6,7,8,9-tetrahydro-5H-[1,2,4]triazolo[1,5-a]azepin-2-amine] | – | < 10
8 | COc1cc(Nc2nc3n(n2)CCCCC3c2ccc(F)cc2)cc(F)c1-n1cnc(Cl)c1 (centres unmarked) [Example 49, N-(4-(4-chloro-1H-imidazol-1-yl)-3-fluoro-5-methoxyphenyl)-9-(4-fluorophenyl)-6,7,8,9-tetrahydro-5H-[1,2,4]triazolo[1,5-a]azepin-2-amine] | – | < 10
9 | COc1cc(Nc2nc3n(n2)CCCCC3c2cc(F)c(F)c(F)c2)ccc1-n1cnc(Cl)c1 (centres unmarked) [Example 50, N-(4-(4-chloro-1H-imidazol-1-yl)-3-methoxyphenyl)-9-(3,4,5-trifluorophenyl)-6,7,8,9-tetrahydro-5H-[1,2,4]triazolo[1,5-a]azepin-2-amine] | – | < 10
10 | COc1cc(Nc2nc3n(n2)CCCCC3c2cccc(Cl)c2)ccc1-n1cnc(Cl)c1 (centres unmarked) [Example 53, N-(4-(4-chloro-1H-imidazol-1-yl)-3-methoxyphenyl)-9-(3-chlorophenyl)-6,7,8,9-tetrahydro-5H-[1,2,4]triazolo azepin-2-amine] | – | < 10
11 | COc1cc(Nc2nc3n(n2)CCCCC3c2ccc(F)cc2)ccc1-c1cc(C)no1 (centres unmarked) [Example 61, 9-(4-fluorophenyl)-N-(3-methoxy-4-(3-methylisoxazol-5-yl)phenyl)-6,7,8,9-tetrahydro-5H-[1,2,4]triazolo[1,5-a]azepin-2-amine] | – | 100 to 1000
12 | COc1cc(Nc2nc3c(s2)CCCC3c2ccccc2)ccc1-n1cnc(Cl)c1 (centres unmarked) [Example 68, N-(4-(4-chloro-1H-imidazol-1-yl)-3-methoxyphenyl)-4-phenyl-4,5,6,7-tetrahydrobenzo[d]thiazol-2-amine] | – | 10 to 100

Now from value to compound:

Row | IC50 [1] [nM] | IC50 [2] [nM] | SMILES
13 | 8 | – | COc1cc(Nc2nc3n(n2)CCCC3c2ccc(Cl)cc2Cl)ccc1-n1cnc(Cl)c1 (centres unmarked) [Example 12, N-(4-(4-chloro-1H-imidazol-1-yl)-3-methoxyphenyl)-8-(2,4-dichlorophenyl)-5,6,7,8-tetrahydro-[1,2,4]triazolo[1,5-a]pyridin-2-amine]
14 | – | 10 to 100 | Cc1ncnn1-c1ccc(Nc2nc3n(n2)CCCC3c2ccc(F)cc2)cc1F (centres unmarked) [Example 13, N-(3-fluoro-4-(5-methyl-1H-1,2,4-triazol-1-yl)phenyl)-8-(4-fluorophenyl)-5,6,7,8-tetrahydro-[1,2,4]triazolo[1,5-a]pyridin-2-amine]
15 | – | < 10 | COc1cc(Nc2nc3n(n2)CCCCC3c2ccc(F)cc2)ccc1-n1cnc(Cl)c1 (centres unmarked) [Example 16, N-(4-(4-Chloro-1H-imidazol-1-yl)-3-methoxyphenyl)-9-(4-fluorophenyl)-6,7,8,9-tetrahydro-5H-[1,2,4]triazolo[1,5-a]azepin-2-amine]
16 | – | 10 to 100 | Cc1ncn(-c2ccc(Nc3nc4n(n3)CCCCC4c3ccc(F)cc3)cc2F)n1 (centres unmarked) [Example 25, N-(3-fluoro-4-(3-methyl-1H-1,2,4-triazol-1-yl)phenyl)-9-(4-fluorophenyl)-6,7,8,9-tetrahydro-5H-[1,2,4]triazolo[1,5-a]azepin-2-amine]
17 | – | 10 to 100 | COc1cc(Nc2nc3n(n2)CCCC[C@H]3c2ccc(F)cc2)c(F)cc1-n1cnc(C)n1 [Example 29, (S)—N-(2-fluoro-5-methoxy-4-(3-methyl-1H-1,2,4-triazol-1-yl)phenyl)-9-(4-fluorophenyl)-6,7,8,9-tetrahydro-5H-[1,2,4]triazolo[1,5-a]azepin-2-amine]
18 | – | < 10 | COc1cc(Nc2nc3n(n2)CCCCC3c2ccc(OC(F)(F)F)cc2)ccc1-n1cnc(Cl)c1 (centres unmarked) [Example 31, N-(4-(4-chloro-1H-imidazol-1-yl)-3-methoxyphenyl)-9-(4-(trifluoromethoxy)phenyl)-6,7,8,9-tetrahydro-5H-[1,2,4]triazolo[1,5-a]azepin-2-amine 2,2,2-trifluoroacetate]
19 | – | 10 to 100 | COc1cc(Nc2nc3n(n2)CCCCC3c2ccc(Cl)cc2)ccc1-c1cnn(C)c1 (centres unmarked) [Example 34, 9-(4-chlorophenyl)-N-(3-methoxy-4-(1-methyl-1H-pyrazol-4-yl)phenyl)-6,7,8,9-tetrahydro-5H-[1,2,4]triazolo[1,5-a]azepin-2-amine 2,2,2-trifluoroacetate]
20 | – | < 10 | COc1cc(Nc2nc3n(n2)CCCCC3c2ccc(F)cc2F)ccc1-n1cnc(Cl)c1 (centres unmarked) [Example 35, N-(4-(4-chloro-1H-imidazol-1-yl)-3-methoxyphenyl)-9-(2,4-difluorophenyl)-6,7,8,9-tetrahydro-5H-[1,2,4]triazolo[1,5-a]azepin-2-amine 2,2,2-trifluoroacetate]
21 | – | < 10 | COc1cc(Nc2nc3n(n2)CCCCC3c2cc(F)cc(F)c2)ccc1-n1cnc(Cl)c1 (centres unmarked) [Example 38, N-(4-(4-chloro-1H-imidazol-1-yl)-3-methoxyphenyl)-9-(3,5-difluorophenyl)-6,7,8,9-tetrahydro-5H-[1,2,4]triazolo[1,5-a]azepin-2-amine]
22 | – | 10 to 100 | COc1cc(Nc2nc3n(n2)CCCCC3c2ccc(Cl)nc2)ccc1-n1cnc(Cl)c1 (centres unmarked) [Example 41, N-(4-(4-chloro-1H-imidazol-1-yl)-3-methoxyphenyl)-9-(6-chloropyridin-3-yl)-6,7,8,9-tetrahydro-5H-[1,2,4]thiazolo[1,5-a]azepin-2-amine 2,2,2-trifluoroacetate]
23 | – | 10 to 100 | COc1cc(Nc2nc3n(n2)CCCCC3n2cc(Cl)cn2)ccc1-n1cnc(Cl)c1 (centres unmarked) [Example 42, N-(4-(4-chloro-1H-imidazol-1-yl)-3-methoxyphenyl)-9-(4-chloro-1H-pyrazol-1-yl)-6,7,8,9-tetrahydro-5H-[1,2,4]triazolo[1,5-a]azepin-2-amine 2,2,2-trifluoroacetate]
24 | – | 10 to 100 | COc1cc(Nc2nc3n(n2)CCCCC3c2ccc(F)cc2)ccc1-n1cnc(C(F)F)c1 (centres unmarked) [Example 43, N-(4-(4-(difluoromethyl)-1H-imidazol-1-yl)-3-methoxyphenyl)-9-(4-fluorophenyl)-6,7,8,9-tetrahydro-5H-[1,2,4]triazolo[1,5-a]azepin-2-amine 2,2,2-trifluoroacetate]
25 | – | 10 to 100 | COc1cc(Nc2nc3n(n2)CCCCC3c2ccc(F)cc2)ccc1-c1cnnc(C)c1 (centres unmarked) [Example 47, 9-(4-fluorophenyl)-N-(3-methoxy-4-(6-methylpyridazin-4-yl)phenyl)-6,7,8,9-tetrahydro-5H-[1,2,4]triazolo[1,5-a]azepin-2-amine]
26 | – | < 10 | COc1cc(Nc2nc3n(n2)CCCCC3c2ccccc2F)ccc1-n1cnc(Cl)c1 (centres unmarked) [Example 56, N-(4-(4-chloro-1H-imidazol-1-yl)-3-methoxyphenyl)-9-(2-fluorophenyl)-6,7,8,9-tetrahydro-5H-[1,2,4]triazolo[1,5-a]azepin-2-amine]
27 | – | 10 to 100 | COc1cc(Nc2nc3n(n2)CCCCC3c2ccc(C#N)cc2)ccc1-n1cnc(Cl)c1 (centres unmarked) [Example 57, 4-(2-(4-(4-chloro-1H-imidazol-1-yl)-3-methoxyphenylamino)-6,7,8,9-tetrahydro-5H-[1,2,4]triazolo[1,5-a]azepin-9-yl)benzonitrile]
28 | – | 100 to 1000 | COc1cc(Nc2nc3n(n2)CCCCC3c2ccc(F)cc2)ccc1-c1nc(C)no1 (centres unmarked) [Example 60, 9-(4-fluorophenyl)-N-(3-methoxy-4-(3-methyl-1,2,4-oxadiazol-5-yl)phenyl)-6,7,8,9-tetrahydro-5H-[1,2,4]triazolo[1,5-a]azepin-2-amine]
29 | 19 | – | COc1cc(Nc2nc3c(s2)CCCC3c2ccccc2)ccc1-n1cnc(C)n1 (centres unmarked) [Example 67, N-(3-methoxy-4-(3-methyl-1H-1,2,4-triazol-1-yl)phenyl)-4-phenyl-4,5,6,7-tetrahydrobenzo[d]thiazol-2-amine]
